According to patent US12589161B2, “PEGylated synthetic KL4 peptide, compositions and methods thereof” (THE UNIVERSITY OF HONG KONG, priority 2019, dated 2026):
Non-standard residues stand in square brackets, D forms with d. Residues, ends and D or L forms follow the SMILES beside them. PEG24 = NCCOCCOCCOCCOCCOCCOCCOCCOCCOCCOCCOCCOCCOCCOCCOCCOCCOCCOCCOCCOCCOCCOCCOCCOCCC(=O)O

Assays:
[1] = Solubility of peptides in water; assay type: physicochemical
[2] = Circular dichroism, temperature ramping; assay type: physicochemical; settings: 6 to 94 °C, 5 mM Tris-HCl buffer, 0.1 mg/mL
Procedure: KL4 and PEG6KL4 peptides were dissolved in 5 mM Tris-HCl buffer at a final concentration of 0.1 mg/mL in 0.1% (v/v) DMSO. PEG12KL4 and PEG24KL4 were dissolved in 5 mM Tris-HCl buffer at a final concentration of 0.1 mg/mL without DMSO. CD spectra were acquired on a Chirascan™ Spectrometer (Applied Photophysics, Leatherhead, UK). For temperature ramping experiment, far-UV CD spectra were obtained with the peptide solution incubated from 6° C. to 94° C. Spectra were recorded from 260 to 190 nm using a 0.5 mm path length and were processed using Chirascan software where a spectrum of the peptide free solution was subtracted and Savitzky-Gorlay smoothing applied.

siRNA = assay: Fluorescence displacement assay of siRNA binding and heparin release; settings: 10:1 ratio, heparin titration
Procedure: The siRNA binding affinity of the peptides was investigated by fluorescence displacement assay using negative control siRNA. The siRNA was added into 1× SYBR® Gold Tris-acetate-EDTA (TAE) buffer and incubated for 30 min at room temperature. The fluorescence intensity was quantified by fluorescence spectrophotometer (SpectraMax® M4, Molecular devices, LLC., CA, USA) at 495 nm excitation and 537 nm emission wavelengths. The peptides at concentration of 1 mg/mL were titrated to the siRNA/dye mixtures. The fluorescence intensity of siRNA/dye mixture in the presence of peptides was expressed as a percentage of that of the siRNA/dye mixture without peptides. The background fluorescence was subtracted from all measurements before analysis. Percentage change of fluorescence intensity was plotted against the weight ratio of peptides to siRNA upon titration. To further investigate the binding profile of the peptide/siRNA complexes, heparin was added to dissociate the complexes and release the siRNA. […] The heparin diluted in TAE buffer at concentration of 10 or 100 i.u./μL was titrated into the peptide/siRNA/dye mixture and the fluorescence intensity was measured as described above. Percentage change of fluorescence intensity was plotted against the amount of heparin upon titration. The data was fit to a four-parameter logistic sigmoidal curve and the EC50 and Hill slope were calculated.

A549 cells = assay: GAPDH siRNA transfection on A549 cells (Western blot); assay type: cell-based, human; settings: A549, 10:1 ratio, 6 to 100 nM siRNA, 72 h
Procedure: A549 cells were seeded in 6-well plates at a density of 1.5×10^5 cells per well one day before transfection. The cells were transfected with peptide/siRNA complexes containing 50 pmol of GAPDH siRNA or negative control siRNA per well (50 nM). The complexes were prepared in OptiMEM I reduced serum medium at 10:1, 15:1 and 20:1 ratios (w/w). Lipofectamine 2000 was used as control. The complexes were added to the cells and incubated for 4 h at 5% CO2, 37° C. before being washed with PBS. The transfection medium was removed and replaced with serum supplemented cell culture medium. At 72 h post-transfection, the cells were washed and lysed with cell lysis buffer. Western blotting assay was performed to analyze the level of GAPDH protein. The GAPDH expression was analyzed by densitometry of Western Blots using Image J software. The remaining GAPDH expression was the density of the GAPDH band of positive control (normalized with beta-actin of the corresponding sample) divided by the GAPDH band of negative control (normalized with the beta actin band of the corresponding sample).
(§1) A549 cells, BEAS-2B and Calu-3 cells were seeded in six-well plates at a density of 1.6×10^5 cells per well, 2×10^5 cells per well and 3×10^5 cells per well, respectively, one to two days before transfection. The cells were transfected with peptide/siRNA complexes at 5:1 to 20:1 ratio (w/w) containing GAPDH siRNA or negative control siRNA (6 to 100 nM) in OptiMEM I reduced serum medium. Lipofectamine 2000 was used for comparison. After 5 h of incubation, the cells were washed and replaced with serum supplemented cell culture medium. At 72 h post-transfection, the cells were washed and lysed with cell lysis buffer. Western blotting assay was performed to analyze the level of GAPDH protein as previously described. The GAPDH expression was analyzed by densitometry of Western blots using ImageJ software (Version 1.52). The GAPDH expression was normalized with the expression of […]-actin of the corresponding sample. The remaining GAPDH expression was the normalized GAPDH expression of positive control divided by the normalized GAPDH expression of negative control.

Calu-3 cells = assay: GAPDH siRNA transfection on Calu-3 cells (Western blot); assay type: cell-based, human; settings: one-way ANOVA, Tukey, n.s. not significant, * p<0.05, ** p<0.01, *** p<0.001
Procedure: as §1

BEAS-2B cells = assay: GAPDH siRNA transfection on BEAS-2B cells (Western blot); assay type: cell-based, human; settings: one-way ANOVA, Tukey, n.s. not significant, * p<0.05, ** p<0.01, *** p<0.001
Procedure: as §1

[3] = Charge ratio of peptide to siRNA at 10:1 weight ratio
From the text: This is partly because the uncharged PEG chains reduced the effective charge ratio between cationic KL4 and siRNA [77]. The charge ratios of KL4, PEG6KL4, PEG12KL4 and PEG24KL4 to siRNA at 10:1 weight ratio are 6.1 to 1, 5.5 to 1, 4.9 to 1 and 4.2 to 1, respectively. […] The molecular weight of the PEG used in this study, which is below 1,200 Da, is relatively low compared with others where PEG of 2,000 to 5,000 Da was often used. Therefore, PEGylated KL4 peptide/siRNA complexes remained to be positively charged, which is suitable for cellular entry. […] In addition, PEG also provides steric hindrance between the interaction of KL4 and siRNA that weakens the binding, promoting the release of siRNA from the complexes after the addition of heparin.

CC(C)C[C@H](NC(=O)[C@H](CC(C)C)NC(=O)[C@H](CC(C)C)NC(=O)[C@H](CC(C)C)NC(=O)[C@H](CCCCN)NC(=O)[C@H](CC(C)C)NC(=O)[C@H](CC(C)C)NC(=O)[C@H](CC(C)C)NC(=O)[C@H](CC(C)C)NC(=O)[C@H](CCCCN)NC(=O)[C@H](CC(C)C)NC(=O)[C@H](CC(C)C)NC(=O)[C@H](CC(C)C)NC(=O)[C@H](CC(C)C)NC(=O)[C@H](CCCCN)NC(=O)[C@H](CC(C)C)NC(=O)[C@H](CC(C)C)NC(=O)[C@H](CC(C)C)NC(=O)[C@H](CC(C)C)NC(=O)[C@H](CCCCN)NC(=O)CCOCCOCCOCCOCCOCCOCCOCCOCCOCCOCCOCCOCCOCCOCCOCCOCCOCCOCCOCCOCCOCCOCCOCCOCCN)C(=O)N[C@@H](CCCCN)C(N)=O [PEG24KL4] (H-[PEG24]KLLLLKLLLLKLLLLKLLLLK-NH2; N-terminus assumed)
solubility [1]: > 2000 µg/mL | secondary structure at different temperatures (far-UV CD) [2]: adopted an alpha-helical structure at all tested temperatures | binding affinity between peptide and siRNA (siRNA): weakest | siRNA transfection efficiency among the four peptides at different amounts of siRNA (A549 cells): lowest transfection efficiency | Comparison within the same peptide prepared at different peptide to siRNA ratios (Calu-3 cells): n.s. | Comparison within the same peptide prepared at different peptide to siRNA ratios (BEAS-2B cells): 5:1 vs 20:1 * | charge ratio of peptide to siRNA [3]: 4.2 to 1
